According to patent US6869956B2, “Methods of treating inflammatory and immune diseases using inhibitors of IκB kinase (IKK)” (Bristol-Myers Squibb Company, priority 2000, dated 2005):

Tests used:
[1] = system: DSS-induced colitis; assay: Dextran sulfate sodium-induced murine model of inflammatory bowel disease; format: in vivo, Swiss-Webster mice; conditions: for Mean clinical score: colon, scale 0-3
Procedure: In this model, Swiss-Webster mice (8 weeks old, 5 animals per treatment group) were given 6% DSS in their drinking water for 7 consecutive days to induce intestinal inflammation. Test compounds were administered daily throughout the study. On day 9, animals were sacrificed and the colons were removed for clinical and histological evaluation.
Clinical scoring was determined by the gross clinical evaluation of the injury on a scale from 0 (normal) to 3 (severe) as detailed in Table 7.
For histological scoring, colon sections were graded as to the severity of crypt injury and the degree of inflammation. The crypt injury was scored as detailed in Table 8, wherein the crypt is part of the glandular make-up of the colon.
Tissue involvement was scored as detailed in Table 9. Any signs of crypt injury or inflammation, regardless of severity, constitute tissue involvement.
The injury histological score is defined as the product of the crypt injury grade and the tissue involvement grade. The scoring of severity of inflammation is detailed in Table 10.
The inflammation histological score is the product of the severity of inflammation grade and the extent of tissue involvement grade. Crypt injury and inflammatory scoring were performed on each colon section and a mean score and standard error were determined for each section. Cumulative crypt injury and inflammatory scores for each group were determined. The results of Table 12 present the cumulative injury and inflammation scores of colons in mice with DSS-induced colitis.

[2] = system: collagen-induced arthritis; assay: Murine model of collagen-induced arthritis; format: in vivo, DBA/1 LacJ male mice; parameters: Cumulative arthritis injury score (±sem): scale not given here
Procedure: DBA/1 LacJ male mice 6-8 wk (Jackson Laboratories; Bar Harbor, Me.) were immunized subcutaneously on day 0 and on day 21 with 100 μg bovine type 11 collagen in 0.1 mL RIBI Adjuvant System (RAS) with monophosphoryl lipid A(RIBI lmmunoChem Research; Hamilton, Mont.). In this model, disease onset occurs within one week after the second collagen injection.
When treated in a preventative mode, test compounds were administered daily beginning on day 0 through day 41.
In the established (i.e. therapeutic) mode, the administration of test compounds was initiated only after paw inflammation of an animal had achieved a score of 2 (as defined below), at which time, the animal was randomly assigned to a treatment group. Treatment continued daily for all four paws as described below.
Following the Day 21 booster, mice were regularly monitored for the development and severity of paw inflammation.
Clinical paw scores for all four paws were summed for each mouse and the mean ± standard deviation (SD) was calculated for each treatment group.
Histological scoring involved evaluating histologically and grading semi-quantitatively tibiotarsal joints of sacrificed mice, specifically examining the severity of inflammation, synovial hyperplasia, bone resorption, and cartilage erosion. Cumulative arthritis injury scores for each group were compared by the nonparametric Kruskal-Wallis analysis of variance.

[3] = system: LPS-induced serum TNFα; assay: LPS-induced serum TNFα in mice; format: in vivo, BALB/c mice; conditions: p.o.
Procedure: As a measure of activity against NF-κB-dependent TNFα production in vivo, test compounds were administered to BALB/c mice subsequently challenged with an intravenous dose of E. coli LPS (1 μg in 100 μL phosphate-buffered saline). One hour after LPS challenge, blood was collected from the mice and the levels of TNFα in the serum measured by EIA(R&D Systems). Inhibition was calculated from control animals which received LPS challenge with no test compound.

[4] = system: transplanted hearts (graft rejection); assay: Murine neonatal heart to ear transplants, graft survival; format: in vivo, BALB/c mice
Procedure: Cardiac transplants were performed as described by Fulmer et al. (Fulmer, R. I. et al. The American Journal of Anatomy 113:273-281, 1963). Neonatal hearts were obtained from newborn C57BL/6 mice not more than 48 hours after birth. The hearts were transplanted into recipient BALB/c mice, which were prepared under anesthesia by making a small incision at the base of the ear pinna and forming a pocket by gently lifting the skin away from the ear. The incision permitted the insertion of the donor heart subcutaneously into the pocket. […] The pulsations of the heart were measured by contractile activity with an appropriate electrocardiogram (ECG) monitoring device. The contractile activity of the transplanted graft was monitored daily. The time of graft rejection was defined as the day after transplantation on which contractile activity ceased. Without therapeutic intervention, the host mounts an immune response to the transplanted heart (i.e., graft rejection). This immune response causes the transplanted heart to cease beating typically 10-14 days post transplantation.
Test compounds were administered in daily doses either alone or in combination with other therapies, such as Cyclosporine A (15 mg/kg, orally, “p.o.”) or CTLA4-Ig (200 μg in 200 μl PBS given intraperitoneally on only days 0, 2, and 4). Table 2 presents the effects of test compounds on median survival time of transplanted hearts, either alone or in combination with Cyclosporine A (CsA). Table 3 presents the effects of test compounds on median survival time of transplanted hearts, either alone or in combination with CTLA4-Ig.

[5] = system: ovalbumin-induced inflammatory cell infiltration in the lung; assay: Ovalbumin-induced inflammatory cell infiltration into the lung of sensitized mice; format: in vivo, BALB/c mice; conditions: for Total Inflammatory Cells in BAL: days 14 to 17, BAL on day 18
Procedure: In the pulmonary inflammation animal model, BALB/c mice were sensitized by an intraperitoneal injection of 0.1 mL alum-precipitated antigen containing 40 μg ovalbumin adsorbed to aluminum hydroxide gel on days 0 and 10. On day 14, animals received intranasal challenge with 100 μg ovalbumin in 50 μl saline (PBS). Mice were injected intraperitoneally with antigen to sensitize the animals prior to intranasal challenge to induce lung inflammation. Administration of the test compound was given on days 14 to 17. On day 18, bronchoalveolar lavage fluid (BAL) was collected for measurements of total inflammatory cell infiltration (eosinophils, monocytes, lymphocytes, and neutrophils).

[6] = Pharmacokinetics in mice; format: in vivo; conditions: mouse, plasma, BALB/c mice
Procedure: Compound 6 was administered to BALB/c mice either per orally (p.o.) or intravenously (i.v.). Blood was drawn at various times (0.5 to 4 hours) after dosing and the plasma drug levels measured by liquid chromatography-mass spectral analysis.

[7] = system: TNFα production in THP-1 cells; assay: TNFα production assay in LPS-stimulated THP-1 cells; format: cell-based; conditions: Homo sapiens, 6 hours, ELISA, read-out: IC50 in TNF-α production assay
Procedure: THP-1 (human monocytic cell line) obtained from ATCC was cultured in RPMI-1640 supplemented with 10% FBS, sodium pyruvate, HEPES, 2-mercaptoethanol, Penicillin/Streptomycin. To a 96-well plate containing THP-1 cells (1.4×10^6/mL, 2.5×10^5 cells/well) in 180 μL RPMI-1640 was added 20 μL of the test compound in 10% DMSO. […] After one hour at 37° C., 20 μL of 1000 ng/mL lipopolysaccharide (LPS from Salmonella typhosa, Sigma) was added to each well. After an additional 6 hours at 37° C., the supernatants were collected following a 5 minute centrifugation of the plate to pellet the cells. The amount of TNFα in these supernatants was then measured using a TNFα-specific ELISA (Pharmingen). […] IC50 values were calculated from the percentage inhibition at various doses.

Cc1ccc2nc(NCCN)c3ncc(C)n3c2c1 [Compound 6, 4(2′-aminoethyl)amino-1,8-dimethylimidazo(1,2-a)quinoxaline]
Group Mean Inflammation Histological Score ([1]; 30 mg/kg p.o. daily): 7.58 ± 0.81 | Group Mean Injury Histological Score ([1]; 30 mg/kg p.o. daily): 4.83 ± 0.55 | Mean clinical score ([1]; 30 mg/kg p.o. daily): 1.10 ± 0.49 | Group Mean Inflammation Histological Score ([1]; 100 mg/kg p.o. daily): 6.82 ± 0.85 | Group Mean Injury Histological Score ([1]; 100 mg/kg p.o. daily): 5.66 ± 0.87 | Mean clinical score ([1]; 100 mg/kg p.o. daily): 1.00 ± 0.35 | clinical and histological score vs untreated mice ([1]; daily administration): statistically significant decrease in clinical and histological score | Cumulative arthritis injury score (±sem) ([2]; established mode, 10 mg/kg, two weeks after disease onset): 4.2 ± 1.0 | disease progression ([2]; established mode, 30 mg/kg p.o., vs vehicle): significantly inhibited disease progression | Cumulative arthritis injury score (±sem) ([2]; established mode, 30 mg/kg, two weeks after disease onset): 2.1 ± 0.9 | disease progression ([2]; established mode, 100 mg/kg p.o.): significant disease resolution | Cumulative arthritis injury score (±sem) ([2]; established mode, 100 mg/kg, two weeks after disease onset): 0.9 ± 0.5 | Cumulative arthritis injury score (±sem) ([2]; preventative mode, 10 mg/kg): 5.3 ± 1.7 | Cumulative arthritis injury score (±sem) ([2]; preventative mode, 30 mg/kg): 0.4 ± 0.4 | disease onset ([2]; preventative mode, 30 mg/kg p.o. daily): inhibited disease onset | Cumulative arthritis injury score (±sem) ([2]; preventative mode, 30 mg/kg, listed as compound 6, 30 mg/kg): 0.4 | Cumulative arthritis injury score (±sem) ([2]; preventative mode, 100 mg/kg): 0.0 | incidence of disease (FIG. 1) ([2]; preventative mode, 100 mg/kg daily, vs vehicle): significant difference in incidence of disease | disease onset ([2]; preventative mode, 100 mg/kg p.o. daily): prevented any disease onset | Cumulative arthritis injury score (±sem) ([2]; preventative mode, 100 mg/kg, listed as compound 6, 100 mg/kg): 0 | inhibition of the LPS-induced serum TNFα levels in vivo ([3]; 10 mg/kg): 27-63% | inhibition of the LPS-induced serum TNFα levels in vivo ([3]; 30 mg/kg): 53-89% | inhibition of the LPS-induced serum TNFα levels in vivo ([3]; 50 mg/kg): 83-92% | Median Graft Survival Time ([4]; CTLA4-Ig (200 μg i.p. days 0, 2, 4) plus Compound 6 50 mg/kg p.o.): 32 days | Median Graft Survival Time ([4]; CTLA4-Ig (200 μg i.p. days 0, 2, 4) plus Compound 6 100 mg/kg p.o.): >60 days | Median Graft Survival Time ([4]; Compound 6 50 mg/kg p.o. alone): 12 days | Median Graft Survival Time ([4]; Cyclosporine A 15 mg/kg p.o. plus Compound 6 50 mg/kg p.o.): 29 days | effect of combination with cyclosporine A or CTLA4-Ig on graft survival ([4]; co-administered with cyclosporine A or CTLA4-Ig): synergistic effects | Total Inflammatory Cells in BAL ([5]; 30 mg/kg p.o.): 2.8 × 10^6 ± 1.3 × 10^6 | Total Inflammatory Cells in BAL ([5]; 100 mg/kg p.o.): 2.2 × 10^6 ± 0.3 × 10^6 | total inflammatory cells in the lungs vs untreated mice ([5]; administration after ovalbumin challenge): statistically significant decrease in total inflammatory cells in the lungs | half-life ([6]; iv, apparent terminal elimination phase after i.v. dose): 7.9 h | bioavailability ([6]; oral, AUC p.o. divided by AUC i.v.): 100% | IC50 [7]: 4 µM
